Data on 21 molecules can be found in patent US20120029085A1, “STABILIZATION OF QUINOL COMPOSITION SUCH AS CATECHOLAMINE DRUGS” (priority 2010, published 2012).

The conditions of series [1]: cited from earlier work.
A short description of series [2]: Percent protonated (RNH+) and unprotonated (RN) amine form of local anesthetics as a function of pH. The class given is physicochemical. The conditions noted are these: for % RNH(+) at pH 5.0: pH 5.0, protonated form; for % RN at pH 5.0: pH 5.0, unprotonated form; for % RNH(+) at pH 6.5: pH 6.5, protonated form; for % RN at pH 6.5: pH 6.5, unprotonated form; for % RNH(+) at pH 7.4: pH 7.4, protonated form; for % RN at pH 7.4: pH 7.4, unprotonated form. An excerpt: According to the Henderson-Hasselbalch equation:
pH=pKa+log([A^−]/[HA]) (I)

The conditions of series [3]: amine group of the local anesthetic; cited from earlier work.
For series [4] the following is noted: cystine/cysteine redox couple; cited from earlier work.

One may read the pKa as the pH at which an ionisable group is half protonated. For the molecule `NC(=O)CN(CC(=O)O)CC(=O)O` [ADA], the pKa in series [1] (Table 3, buffer) was 6.60.
As for `CCCNC(C)C(=O)Nc1c(C)csc1C(=O)OC` (stereo not drawn) [Articaine], in series [2], the “% RNH(+) at pH 5.0” value was determined as 99.84%, the “% RN at pH 5.0” value came out at 0.16%, the “% RNH(+) at pH 6.5” value was 95.23% and the “% RN at pH 6.5” value amounted to 4.77%. Moreover, in series [2], the “% RNH(+) at pH 7.4” value stood at 71.53% and the “% RN at pH 7.4” value is 28.47%.
As for `O=S(=O)(O)CCN(CCO)CCO` [BES], the pKa in series [1] (Table 3, buffer) was 7.09.
Take `CCOC(=O)c1ccc(N)cc1` [Benzocaine]: in series [2], the “% RNH(+) at pH 5.0” value is reported as 0.99%, the “% RN at pH 5.0” value was 99.01%, the “% RNH(+) at pH 6.5” value was determined as 0.03% and the “% RN at pH 6.5” value worked out at 99.97%. Moreover, in series [2], the “% RNH(+) at pH 7.4” value was found to be 0.00% and the “% RN at pH 7.4” value is recorded as 100.00%. In addition, in series [3], the “pKa (amine)” value is 3.
Regarding `OCC(CO)(CO)NCCCNC(CO)(CO)CO` [Bis-Tris Propane], the pKa1 in series [1] (Table 3, buffer, first dissociation) is reported as 6.80.
As for `CCCCN1CCCCC1C(=O)Nc1c(C)cccc1C` (stereo not drawn) [Bupivacaine], in series [2], the “% RNH(+) at pH 5.0” value was found to be 99.92%, the “% RN at pH 5.0” value turned out to be 0.08%, the “% RNH(+) at pH 6.5” value turned out to be 97.55% and the “% RN at pH 6.5” value is on record as 2.45%. In addition, in series [2], the “% RNH(+) at pH 7.4” value is on record as 83.37% and the “% RN at pH 7.4” value is 16.63%.
Regarding `CCN(CC)CCOC(=O)c1ccc(N)cc1Cl` [Chloroprocaine], in series [2], the “% RNH(+) at pH 5.0” value came to 99.98%, the “% RN at pH 5.0” value was 0.02%, the “% RNH(+) at pH 6.5” value is listed as 99.37% and the “% RN at pH 6.5” value is recorded as 0.63%. In series [2], the “% RNH(+) at pH 7.4” value came out at 95.23% and the “% RN at pH 7.4” value worked out at 4.77%. In series [3], the “pKa (amine)” value is listed as 8.7.
Take `CCCCOc1cc(C(=O)NCCN(CC)CC)c2ccccc2n1` [Dibucaine]: in series [2], the “% RNH(+) at pH 5.0” value was determined as 99.98%, the “% RN at pH 5.0” value is given as 0.02%, the “% RNH(+) at pH 6.5” value is on record as 99.50% and the “% RN at pH 6.5” value amounted to 0.50%. In addition, in series [2], the “% RNH(+) at pH 7.4” value was determined as 96.17% and the “% RN at pH 7.4” value is recorded as 3.83%. Besides, in series [3], the “pKa (amine)” value is listed as 8.8.
In the case of `CCCN(CC)C(CC)C(=O)Nc1c(C)cccc1C` (stereo not drawn) [Etidocaine], in series [2], the “% RNH(+) at pH 5.0” value is given as 99.80%, the “% RN at pH 5.0” value was 0.20%, the “% RNH(+) at pH 6.5” value stood at 94.06% and the “% RN at pH 6.5” value is listed as 5.94%. Moreover, in series [2], the “% RNH(+) at pH 7.4” value came out at 66.61% and the “% RN at pH 7.4” value was found to be 33.39%.
Regarding `CCN(CC)CC(=O)Nc1c(C)cccc1C` [Lidocaine], in series [2], the “% RNH(+) at pH 5.0” value is 99.87%, the “% RN at pH 5.0” value is on record as 0.13%, the “% RNH(+) at pH 6.5” value came to 96.17% and the “% RN at pH 6.5” value amounted to 3.83%. For the same molecule, in series [2], the “% RNH(+) at pH 7.4” value is 75.97% and the “% RN at pH 7.4” value is 24.03%.
As for `O=S(=O)(O)CCCCN1CCOCC1` [MOBS], the pKa in series [1] (Table 3, buffer) is 7.60.
Turning to `O=C(O)CC(O)C(=O)O` (stereo not drawn) [Malate], the pKa2 in series [1] (Table 3, buffer, second dissociation) is 5.13.
In the case of `Cc1cccc(C)c1NC(=O)C1CCCCN1C` (stereo not drawn) [Mepivacaine], in series [2], the “% RNH(+) at pH 5.0” value is 99.75%, the “% RN at pH 5.0” value turned out to be 0.25%, the “% RNH(+) at pH 6.5” value was 92.64% and the “% RN at pH 6.5” value worked out at 7.36%. Further, in series [2], the “% RNH(+) at pH 7.4” value stood at 61.31% and the “% RN at pH 7.4” value turned out to be 38.69%.
As for `CCCNC(C)C(=O)Nc1ccccc1C` (stereo not drawn) [Prilocaine], in series [2], the “% RNH(+) at pH 5.0” value is 99.87%, the “% RN at pH 5.0” value was determined as 0.13%, the “% RNH(+) at pH 6.5” value was determined as 96.17% and the “% RN at pH 6.5” value was 3.83%. Besides, in series [2], the “% RNH(+) at pH 7.4” value is 75.97% and the “% RN at pH 7.4” value was 24.03%.
With `CCN(CC)CCOC(=O)c1ccc(N)cc1` [Procaine], in series [2], the “% RNH(+) at pH 5.0” value is 99.99%, the “% RN at pH 5.0” value worked out at 0.01%, the “% RNH(+) at pH 6.5” value was 99.60% and the “% RN at pH 6.5” value worked out at 0.40%. Also, in series [2], the “% RNH(+) at pH 7.4” value is on record as 96.93% and the “% RN at pH 7.4” value amounted to 3.07%.
In the case of `CCCN1CCCC[C@H]1C(=O)Nc1c(C)cccc1C` [Ropivacaine], in series [2], the “% RNH(+) at pH 5.0” value came to 99.92%, the “% RN at pH 5.0” value is reported as 0.08%, the “% RNH(+) at pH 6.5” value was determined as 97.55% and the “% RN at pH 6.5” value was found to be 2.45%. In series [2], the “% RNH(+) at pH 7.4” value is listed as 83.37% and the “% RN at pH 7.4” value worked out at 16.63%.
On to `O=S(=O)(O)CCNC(CO)(CO)CO` [TES], for which, in series [1] (Table 3, buffer), the pKa is listed as 7.50.
For `CCCCNc1ccc(C(=O)OCCN(C)C)cc1` [Tetracaine], in series [2], the “% RNH(+) at pH 5.0” value came to 99.94%, the “% RN at pH 5.0” value stood at 0.06%, the “% RNH(+) at pH 6.5” value worked out at 98.04% and the “% RN at pH 6.5” value amounted to 1.96%. In addition, in series [2], the “% RNH(+) at pH 7.4” value was found to be 86.32% and the “% RN at pH 7.4” value is reported as 13.68%.
`O=C(O)CNC(CO)(CO)CO` [Tricine]: the pKa in series [1] (Table 3, buffer) is on record as 8.05.
As for `N[C@@H](CS)C(=O)O` [cysteine], the “standard reduction potential E°” value in series [4] is −0.34 V.
For `CCC(CC)(C(=O)O)C(=O)O` [diethylmalonic acid], the “pKa (value in parentheses after the buffer name)” value in series [1] (text list of pH buffers, b28) is reported as 7.2.
